Test results as given in patent publication US6872414B1, “Anhydrous lactitol crystals, a product containing the same and a process for the preparation thereof as well as use thereof” (Xyrofin Oy, priority 1999, dated 2005).
Read-outs that look alike come from different tables or passages of the source. One block for each molecule: values may come before it.

Legend:
[1] = prior art reports; cited from earlier work
[2] = Hygroscopicity / water sorption of lactitol crystals; type: physicochemical
Description: The water sorption of a sample of β crystals was less than about 0.3% of water in 45 days even when the relative humidity of the ambient air was 75% at 40° C.

[3] = Storability of crystals at room temperature; type: physicochemical; conditions: room temperatures, relative humidity below 60%
From the text: The new crystalline orthorhombic anhydrous lactitol β has a good flowability and storability, since it is stable at room temperatures, the relative humidity being below 60%.

[4] = Crystal form after milling (DSC, X-ray powder diffraction); type: physicochemical; conditions: laboratory hammer mill, 10 g/min, 600 rpm
Description: Good quality anhydrous β lactitol crystals (lactitol assay 99.9%, enthalpy 169.4±0.5 J/g) was milled with a small laboratory hammer mill (Culatti). The feed rate was 10 g/min and the hammer speed 600 rpm. Fine lactitol particles were obtained.

Structure (SMILES): OC[C@@H](O)[C@@H](O[C@@H]1O[C@H](CO)[C@H](O)[C@H](O)[C@H]1O)[C@H](O)[C@@H](O)CO [lactitol anhydride]
hygroscopicity [1]: highly hygroscopic

Structure (SMILES): OC[C@@H](O)[C@@H](O[C@@H]1O[C@H](CO)[C@H](O)[C@H](O)[C@H]1O)[C@H](O)[C@@H](O)CO [α lactitol, lactitol]
hygroscopicity [1]: low hygroscopicity

hygroscopicity [2]: very low hygroscopicity
hygroscopicity ([2]; 25° C. and 60% relative humidity): very low hygroscopicity
hygroscopicity ([2]; 40° C. and 75% relative humidity): very low hygroscopicity
water sorption ([2]; 40° C., 75% relative humidity, 45 days): less than 0.3%
stability / storability [3]: stable
crystal form after milling [4]: still in the anhydrous β form
Structure (SMILES): OC[C@@H](O)[C@@H](O[C@@H]1O[C@H](CO)[C@H](O)[C@H](O)[C@H]1O)[C@H](O)[C@@H](O)CO [anhydrous lactitol β, lactitol]

Structure (SMILES): OC[C@@H](O)[C@@H](O[C@@H]1O[C@H](CO)[C@H](O)[C@H](O)[C@H]1O)[C@H](O)[C@@H](O)CO [A1 anhydrous lactitol, lactitol]
hygroscopicity [1]: hygroscopic
